The conditions of assay [1]: Japanese Published Unexamined Patent Application No. 112988/89; cited from earlier work.
Another assay deals with various bacteria. Conditions: Japanese Published Unexamined Patent Application No. 112988/89; cited from earlier work.
For the next assay, the system named is P388 Leukemia. Kind of assay: Antitumor activity against P388 leukemia in mice (increased life span). It is filed as in vivo, CDF1 mice. The settings on record: Mus musculus, P388, ip, 720 h, single i.p. 24 hours after transplantation, CDF1 mice, 30 days observation. In outline: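 CDF1 mice (20–25 g) received 1×10^6 P388 cells intraperitoneally, taken from DBA/2 ascites on day 7 after transplantation. Activity expressed as ILS%, the ratio of mean survival days in treated versus untreated control mice.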

Assay [2] deals with Enterococcus faecium ATCC 10541. Kind of assay: Antibacterial activity, agar dilution method (MIC). It is filed as cell-based. The settings on record: ATCC10541, EF: Enterococcus faecium ATCC 10541, pH 7, read-out: MIC (minimum growth inhibitory concentration). From the text: (§1) The antibacterial activity as determined by the agar dilution method using a medium prepared by dissolving 3 g of Bacto-Tryptone (a product of Difco Laboratories), 3 g of a meat extract, 1 g of an yeast extract, 1 g of glucose and 16 g of agar in one liter of water (pH 7).
EF: Enterococcus faecium ATCC 10541
Background: In agar dilution, organisms are placed on agar that contains the substance at set levels.

Assay [3] concerns Bacillus subtilis No. 10707. Kind of assay: Antibacterial activity, agar dilution method (MIC). It is filed as cell-based. The settings on record: BS: Bacillus subtilis No. 10707, pH 7, read-out: MIC (minimum growth inhibitory concentration).
From the text: as §1
BS: Bacillus subtilis No. 10707

Assay [4] relates to Staphylococcus aureus ATCC 6538P. As to the kind of experiment: Antibacterial activity, agar dilution method (MIC). The settings on record: ATCC6538P; SA: Staphylococcus aureus ATCC 6538P; agar dilution, pH 7; read-out: MIC (minimum growth inhibitory concentration). It is filed as cell-based.
From the text: as §1
SA: Staphylococcus aureus ATCC 6538P

The subject of a further assay is Escherichia coli ATCC 26. As to the kind of experiment: Antibacterial activity, agar dilution method (MIC). It is filed as cell-based. The settings on record: ATCC26, EC: Escherichia coli ATCC 26, pH 7, read-out: MIC (minimum growth inhibitory concentration).
From the text: as §1
EC: Escherichia coli ATCC 26

Assay [5] relates to Klebsiella pneumoniae ATCC 10031. Kind of assay: Antibacterial activity, agar dilution method (MIC). It is filed as cell-based. Conditions: ATCC10031; KP: Klebsiella pneumoniae ATCC 10031; agar dilution, pH 7; read-out: MIC (minimum growth inhibitory concentration).
From the text: as §1
KP: Klebsiella pneumoniae ATCC 10031

Here are results for four molecules from patent publication US5733924A, “DC 107 derivatives and treatment methods” (Kyowa Hakko Kogyo Co., Ltd., priority 1995, dated 1998).

Each structure is given as a SMILES string. Converted amounts (≈) assume the structure as drawn.

For the molecule `C/C1=C\C(O)C(=O)/C=C/C=C\c2csc(n2)C(C)NC(=O)CC2(CC1)[S+]([O-])SC(=O)C2(C)O` (centres unmarked) [DC107], the antitumor activity entry in assay [1] is recorded as “also an antitumor activity”. In addition, the antibacterial activity result with various bacteria is on record as “exhibits an antibacterial activity against various bacteria”.

The term ILS denotes the gain in survival time of treated over control animals, in per cent. Take `CC1=CC(OC(=O)CNC(=O)CCNC(=O)OC(C)(C)C)C(=O)C=CC=Cc2csc(n2)C(C)N2C(=O)CC(C(C)(O)C(=O)SCc3oc(=O)oc3C)(CC1)[S+]2[O-]` (centres unmarked) [Compound 170]: the ILS at 8 mg/kg in the assay with P388 Leukemia (8.0 mg/kg, read-out: ILS (increased life span)) was determined as 70%. Moreover, the MIC in assay [2] stood at 2.3 µg/mL (≈ 2.7 µM); in assay [3], 2.3 µg/mL (≈ 2.7 µM); in assay [4], 2.3 µg/mL (≈ 2.7 µM); in the assay with Escherichia coli ATCC 26 it was 75 µg/mL (≈ 88.1 µM); in assay [5] it was 2.3 µg/mL (≈ 2.7 µM).

As for `C/C1=C\C(OC(=O)CN(C)C(=O)CCNC(=O)OCc2ccccc2)C(=O)/C=C/C=C\c2csc(n2)C(C)NC(=O)CC2(CC1)[S+]([O-])SC(=O)C2(C)O` (centres unmarked) [Compound 117], the increase in life span (ILS) at 16 mg/kg with P388 Leukemia (16 mg/kg) turned out to be 73%. Moreover, the MIC in assay [2] is 0.23 µg/mL (≈ 0.292 µM); in assay [3] it was 0.13 µg/mL (≈ 0.165 µM); in assay [4] it was 0.13 µg/mL (≈ 0.165 µM); in the assay on Escherichia coli ATCC 26, 0.46 µg/mL (≈ 0.585 µM); in assay [5], 0.057 µg/mL (≈ 0.0724 µM).

Consider `CCC(=O)OC1/C=C(\C)CCC2(CC(=O)NC(C)c3nc(cs3)/C=C\C=C\C1=O)[S+]([O-])SC(=O)C2(C)O` (centres unmarked) [Compound 2], for which the increase in life span (ILS) at 2 mg/kg in the assay with P388 Leukemia (2.0 mg/kg, read-out: ILS (increased life span)) was 42%. Besides, the MIC stood at 0.081 µg/mL (≈ 0.143 µM) in assay [2]; 0.33 µg/mL (≈ 0.582 µM) in assay [3]; 0.041 µg/mL (≈ 0.0723 µM) in assay [4]; 1.3 µg/mL (≈ 2.29 µM) in the assay with Escherichia coli ATCC 26; 0.65 µg/mL (≈ 1.15 µM) in assay [5].
